Reference: patent US20100278782A1, “DIFFERENTIATION OF RAT LIVER EPITHELIAL CELLS INTO HEPATOCYTE-LIKE CELLS” (Vrije Universiteit Brussel, priority 2006, published 2010)

Experiments:
HDAC = settings: literature statement; cited from earlier work
[1] = system: freshly isolated rat hepatocytes; settings: incubated with freshly isolated rat hepatocytes, compared with TSA; cited from earlier work
rat hepatocyte HDAC = assay: Fluor de Lys HDAC inhibition assay in crude rat hepatocyte lysates; format: biochemical; settings: Fluor de Lys substrate, n = 3 or 4, read-out: Estimated IC50 values for tested compounds
Method: Screening of the HDAC inhibiting potencies of the above compounds was performed in crude rat hepatocyte lysates, prepared from freshly isolated cells, using the Fluor de Lys HDAC inhibition assay as detailed in example 9.
A two-step collagenase perfusion technique was used to isolate hepatocytes from male outbred Sprague-Dawley rats (200-300 g; Charles River Laboratories, Brussels, Belgium), which were kept under controlled environmental conditions (12 h light-dark cycle) and fed a standard diet (Animalabo A 04) with water ad libitum. Procedures for housing of the animals, and for isolation and cultivation of the rat hepatocytes were approved by the local ethical committee of the Vrije Universiteit Brussel (VUB, Brussels, Belgium).
Inhibition of HDAC activity was assessed in crude rat hepatocyte lysates by the Fluor de lys HDAC inhibition protocol as outlined herein:
HDAC Fluorescent Activity Assay/Drug Discovery Kit, Tebu-bio, AK-500.
• HDAC: thaw a rat hepatocyte cell extract (containing 6 mg/ml proteins) in tap water at room temperature, store on ice. • HDAC inhibitor:
Prepare a dilution series in assay buffer.
• Add 500 μl homogenisation buffer to 30×10^6 hepatocytes (pellets stored at −80° C.). • Ultrasonicate on ice 2×30 pulses • Let the homogenate(s) rest on ice during 5 min. • Transfer the homogenate(s) to 1.5 ml eppendorf tube(s) on ice, vortex vigorously. • Centrifugate at 14000 rpm in the microcentrifuge during 5 min at 4° C. • Determine the protein concentration (Bradford protein assay) of the supernatant, discard the pellets. • Dilute the extract(s) to a protein concentration of 6 mg/ml. Divide in aliquots of 500 μl (eppendorf tubes) and store for later use at −80° C.
1. bring 10 μl inhibitor/control solvents/assay buffer per well 2. add 15 μl cell extract to each well (for the blank: 15 μl boiled cell extract) 3. incubate 5 min at room temperature (cover plate with aluminium foil) 4. add 25 μl Fluor de Lys substrate to each well (40 μM solution, […]) 5. cover the plate with aluminium foil and incubate 15 min on orbital shaker 6. after 15 min, add 50 μl freshly prepared, ice-cold developer solution to each well 7. cover the plate with aluminium foil and incubate 15 min on orbital shaker 8. Measure the fluorescence in the plate reader
• Subtract the blank value (boiled extract) (background signal) • Calculate as % of ethanol control, that is set 100% • If the concentrations are spread around the 50% inhibition value, than the IC50 value can be calculated. […] (Note: the concentration should be set out as their logarithmic values)

primary rat hepatocytes [2] = assay: Inhibition of DNA synthesis (3H-methylthymidine incorporation) in EGF-stimulated primary rat hepatocytes; format: cell-based; settings: DNA synthesis at day 3 (72 h), EGF 50 ng/ml
Method: Results are expressed as percentage of positive control (untreated cells cultured in the presence of mitogen). Total inhibition of hepatocyte proliferation is considered when DNA synthesis of treated cells equals DNA synthesis level of negative control (untreated cells cultivated in the absence of mitogen). Results shown are the means±SD from 4 or more independent experiments.
Screening of the anti-proliferative activity of the above compounds (effect on DNA synthesis) was performed as in example 10a.
The maximal (100%) inhibition of rat primary hepatocyte proliferation has been achieved with following concentrations:
Dose-dependent inhibition of cell proliferation by Jung-type HDACi after 3 days of incubation. Hepatocytes (0.4×10^5 cells/cm^2) were cultured in duplicate in a mixture of MEM/M199 (3:1, v/v) and stimulated to proliferate with EGF (50 ng/ml) 4 h after plating. Exposure to the indicated concentrations of HDACi started at time of plating and was maintained for 3 consecutive days. ^3H-methylthymidine incorporation was measured at day 3 (72 h) of culture. Cells cultured in the absence of EGF serve as a negative control for hepatocyte proliferation (neg. contr.) whereas cells stimulated with EGF alone serve as a positive control for hepatocyte proliferation (pos. contr.). Results are expressed as the percentage of maximal incorporation observed in hepatocytes cultured in the presence of EGF alone. Values shown are the means±SD of duplicate cultures of 3 experiments.

primary rat hepatocytes [3] = assay: Location of cell cycle arrest in primary rat hepatocytes from cell cycle marker expression; format: cell-based; settings: 3 days incubation; absence of cyclin D1 and cdk1 protein expression, prior to the restriction point
Text: Assessed as in example 11a.
The effect of the different 6C-spacer compounds on the expression of key cell cycle proteins was investigated as well in order to identify the location of the cell cycle arrest.
Two cell cycle markers were studied as detailed in example 11a (see FIG. 8 for results): (a) cyclin D1, this protein is typically expressed when hepatocytes were able to pass the restriction point located in the mid-late G1 phase; and (b) cdk1, which is a marker for the S/G2/M phase (DNA synthesis takes place in the S phase).
Hepatocytes (0.4×10^5 cells/cm^2) were cultured in duplicate in a mixture of MEM/M199 (3:1; v/v) and stimulated to proliferate with EGF (50 ng/ml) 4 h after plating. Exposure to the indicated concentrations of HDACi started at time of plating and was maintained for 3 consecutive days: Cells were then harvested and analyzed for cyclin D1 and cdk1 expression levels (20 μg proteins/lane). Total ERK staining serves as a loading control.

CYP2 B1 = assay: Expression of CYP450 isoforms in rat primary hepatocytes; format: cell-based; settings: 4 days exposure; expression lost in untreated controls
Method: (§1) Measured as in example 11b.
(§2) Furthermore, pro-differentiating effect of AN-6, AN-8 and AN-10 was examined as described in example 11b. Namely, the expression of phase I biotransformation markers, CYP 450 isoforms was examined. […] In comparison, the expression of latter proteins was lost in controls (untreated cells).
(§3) Hepatocytes (0.57×10^5 cells/cm^2) were cultured in Williams' E medium supplemented with insulin (0.5 μg/ml), glucagon (7 ng/ml) and hydrocortisone (25 μg/ml). Exposure to the indicated concentrations of HDACi started at time of plating and was maintained for 4 consecutive days. Cells were harvested at indicated time points and analyzed for CYP2 B1 and CYP1 A1 expression levels (40 μg proteins/lane).

CYP1 A1 = assay: as above; format: cell-based; settings: 4 days exposure; expression lost in untreated controls
Method: as §1, §2, §3

RLEC = assay: Morphology of RLEC differentiated in the presence of an HDAC inhibitor; format: cell-based, rat
Method: FIG. 15 illustrates morphology of RLEC differentiated in the presence of an HDAC inhibitor, as explained in example 13.
RLEC at 100% confluence are used for differentiation into hepatocyte-like cells: • after sub-cultivation, detach cells as described above and suspend all cells derived from 1 T75 and 1 T150 in 3 ml and 6 ml of new growth medium (37° C.), respectively. • homogenize the cell suspension by pipetting up and down. • add 420 μl growth medium to a 2 cm^2-well • transfer 80 μl of cell suspension to the middle of a 2 cm^2-well, precoated with 50-100 μg/ml collagen type I • tap to homogenize cell suspension; check cells under microscope • incubate cells at 37° C. in growth medium until cells have reached 100% confluence. • At 100% confluence, remove growth medium and expose cells to basal medium supplemented with liver specific factors, as follows: 1. days 0-1: 10 ng/ml FGF-4 2. days 1-3: 10 ng/ml FGF-4, 20 ng/ml HGF 3. days 3-6: 5 ng/ml FGF-4, 30 ng/ml HGF, 0.5×ITS 4. days 6-9: 30 ng/ml HGF, 0.25×ITS; 0.05 μM dexamethasone 5. days 9-12: 20 ng/ml HGF, 0.05 μM dexamethasone 6. days 12-15: 10 ng/ml HGF; 10 ng/ml OSM, 0.05 μM dexamethasone 7. From day 15 on: 10 ng/ml OSM, 0.05 μM dexamethasone
RLEC are differentiated without initial FGF-4 exposure, according to the following sequence:
1. days 0-3: 20 ng/ml HGF 2. days 3-6: 5 ng/ml FGF-4, 30 ng/ml HGF, 0.5×ITS 3. days 6-9: 30 ng/ml HGF, 0.25×ITS; 0.05 μM dexamethasone 4. days 9-12: 20 ng/ml HGF, 0.05 μM dexamethasone 5. days 12-15: 10 ng/ml HGF; 10 ng/ml OSM, 0.05 μM dexamethasone 6. From day 15 on: 10 ng/ml OSM, 0.05 μM dexamethasone
The results are illustrated in FIG. 15. […] The cells still have the characteristic RLEC shape. […] Optimisation of HDAC inhibitor concentration to reduce cell death is within the reach of a skilled person.

HNF-1α = assay: LETF immunofluorescence during hepatic differentiation of RLECs; format: cell-based, rat; settings: TSA added to Sequential 3 differentiation protocol
Method: (§4) A: HNF-3b, B: HNF-4, C: HNF-1a, a: with DAPI counterstain, b: without DAPI counterstain.
(§5) • rinse cells 3× with PBS • fix nuclear and cytoplasmic proteins at room temperature for 10 min with 4% PFA (cold), connexins at −20° C. for 10 min with Ethanol/Aceton (50/50) and cytoskeletal proteins at −20° C. for 10 min with Ethanol. • wash 3×5 min with PBS • proceed with staining or store wells in PBS at 4° C. • check cells under microscope for autofluorescence and attachment • incubate 15 min with 100 mM glycin in PBS (used to saturate reactive groups generated after PFA fixation) • wash 3×5 min with PBS • incubate 15 min with PBST (permeabilization) • rinse 3× with PBS • block 45 min with block buffer at room temperature • incubate overnight at 4° C. with primary Ab diluted in PBS • rinse with PBS • wash 4×15 min with PBS • incubate with fluorescence-labeled secondary Ab 1 h 30 at room temperature (dilute Ab in PBS) • keep dark • wash 4×15 min with PBST • rinse with distilled water • mount with Vectashield with DAPI (use 3 drops per well)
(§6) For this experiment, the protocols of example 5 were used to differentiate RLECs towards the hepatic lineage with the exception of the sequential procedure. Sequential 3 from example 6 was used to differentiate the cells instead of the one stated in example 5. The immunofluorescence protocol-staining on cultured cells was used as stated in example 8.

HNF-3β = assay: as above; format: cell-based, rat; settings: TSA added to Sequential 3 differentiation protocol
Method: as §4, §5, §6

HNF-4 = assay: as above; format: cell-based, rat; settings: TSA added to Sequential 3 differentiation protocol
Method: as §4, §5, §6

Structure (SMILES) | IC50 (rat hepatocyte HDAC) [nM] | Concentration achieving maximal (100%) inhibition of rat primary hepatocyte proliferation (primary rat hepatocytes [2]) [µM] | Cell cycle arrest (primary rat hepatocytes [3]) | also measured
CN(C)c1ccc(C(=O)NCCCCC(=O)NO)cc1 |  |  |  | HDAC inhibitory activity (HDAC): potent HDAC inhibitor; Metabolic stability [1]: metabolically more stable than TSA
CN(C)c1ccc(C(=O)NCCCCC(=O)NO)cc1 [AN-1, 5-(4-dimethylaminobenzoyl)-aminovaleric acid hydroxamid] | 301 ± 28 | 50 |  | 
O=C(CCCCCNC(=O)c1ccccc1)NO [AN-5] |  | 50 | able to induce a similar early G1 cell cycle arrest | 
CN(C)c1ccc(C(=O)NCCCCCC(=O)NO)cc1 [AN-6, 6-(4-dimethylaminobenzoyl)-aminocaproic acid hydroxamid] | 24 ± 2 | 10 | induced an early G1 cell cycle arrest | CYP2 B1 expression during the entire culture period (CYP2 B1): remarkable ability to maintain
O=C(CCCCCNC(=O)c1ccc(Cl)cc1)NO [AN-7] | 84 ± 27 |  |  | 
O=C(CCCCCNC(=O)c1ccc(N2CCCC2)cc1)NO [AN-8] | 55 ± 19 | 7.5 | induced an early G1 cell cycle arrest | 
O=C(CCCCNC(=O)c1cc2ccccc2[nH]1)NO [AN-9] | 313 ± 50 |  |  | 
O=C(CCCCCNC(=O)c1cc2ccccc2[nH]1)NO [AN-10] | 14 ± 4 | 7.5 | induced an early G1 cell cycle arrest | CYP1 A1 expression during the entire culture period (CYP1 A1): remarkable ability to maintain
O=C(CCCCNC(=O)c1ccc(N2CCCCC2)cc1)NO [AN-13] | 2250 ± 616 |  |  | 
O=C(CCCCNC(=O)c1ccc(N2CCOCC2)cc1)NO [AN-14] | 4490 ± 1820 |  |  | 
O=C(CCCCCNC(=O)c1ccc(N2CCCCC2)cc1)NO [AN-15] | 500 ± 108 |  |  | 
O=C(CCCCCNC(=O)c1ccc(N2CCOCC2)cc1)NO [AN-16] | 1010 ± 310 |  |  | 
CC(/C=C/C(=O)NO)=C\[C@@H](C)C(=O)c1ccc(N(C)C)cc1 [TSA, Trichostatin A] |  |  |  | HDAC inhibitory activity (HDAC): potent specific inhibitor of Class I and Class II HDAC in vitro and in vivo; Morphology of differentiating RLEC (RLEC; 320 nM, D2, example 13 sequence): more polygonal shape; Morphology of differentiating RLEC (RLEC; 1 μM, D9, example 13 sequence): differentiate into binuclear, polygonal to cuboidal shaped cells; Cell death of differentiating RLEC (RLEC; 1 μM, example 13 sequence): causes some cell death; Morphology of differentiating RLEC (RLEC; protocol of example 5 with TSA addition): more fibroblast like shape; HNF-1α expression and localisation (HNF-1α): induces expression of HNF-1α in nucleus already on D3; HNF-3β expression and localisation (HNF-3β): already expressed at D3 of the differentiation process and is located inside the nucleus; HNF-4 expression and activity (HNF-4): expressed and active from D3 onwards, either with or without addition of TSA
